Laboratory results: patent publication US4314028A, “Fermentation process for producing tallysomycin compounds” (priority 1980, dated 1982)

What was measured:
[1] = test system: Aspergillus fumigatus IAM 2593; assay: MIC, two-fold agar dilution method; type: cell-based; settings: Sabouraud agar
Summary of the method: (§1)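 Agar dilution (2-fold series) on nutrient agar (bacteria) or Sabouraud agar (fungi).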

[2] = test system: Bacillus subtilis PCI 219; assay: MIC, two-fold agar dilution method; type: cell-based; settings: nutrient agar
Summary of the method: as §1

[3] = test system: Candida albicans IAM 4888; assay: MIC, two-fold agar dilution method; type: cell-based; settings: Sabouraud agar
Summary of the method: (§2)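 Compounds are diluted two-fold through agar plates: Sabouraud medium for the fungus, nutrient medium for the bacterial strains, including the acid-fast Mycobacterium 607. Organisms are then applied and the minimum inhibitory concentration is recorded.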

Escherichia coli NIHJ = assay: MIC, two-fold agar dilution method; type: cell-based; settings: nutrient agar
Summary of the method: as §2

Mycobacterium 607 = assay: MIC, two-fold agar dilution method; type: cell-based; settings: nutrient agar
Summary of the method: as §1

Proteus mirabilis A9554 = assay: MIC, two-fold agar dilution method; type: cell-based; settings: nutrient agar
Summary of the method: as §2

Sarcina lutea PCI1001 = assay: MIC, two-fold agar dilution method; type: cell-based; settings: nutrient agar
Summary of the method: as §1

[4] = test system: Staphylococcus aureus Smith; assay: MIC, two-fold agar dilution method; type: cell-based; settings: nutrient agar
Summary of the method: as §1

[5] = test system: Mycobacterium smegmatis strain M6-3; assay: Relative antibacterial potency, paper-disc agar diffusion method; type: cell-based; settings: relative to tallysomycin A standard=1000 mcg/mg
Protocol: The relative antibacterial potencies (tallysomycin A standard=1000 mcg/mg) of the tallysomycin derivatives were determined by the paper-disc agar diffusion method using Mycobacterium smegmatis strain M6-3 as the assay organism.

[6] = test system: lysogenic bacterium E. coli W1709 (λ); assay: Prophage induction of lysogenic bacterium (ILB activity); type: cell-based; settings: t/c ratio of plaque counts greater than 3.0
Summary of the method: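 Plaques counted on agar plates containing test compound and on control plates, following Lein et al. A test/control plaque ratio above 3.0 counted as significant. Value given as the minimum inducible concentration.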

[7] = test system: Lymphocytic leukemia P388; assay: animal or person; type: in vivo, BDF1 mice; settings: for Antitumor activity P388 (ED125): ip, once daily 9 days, dose giving T/C survival of 125%; for Antitumor activity P388 (ED125) / Antitumor therapeutic index P388: copper-chelated form unless otherwise stated; for Antitumor therapeutic index P388: single dose LD50/ED125
Summary of the method: (§3)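 P388 (3×10^5 cells) and Lewis lung (5×10^5) i.p. in BDF1 mice, B16 (5×10^5) s.c. in BDF1, Sarcoma 180 ([…]) i.p. in male dd mice. ED125 (Sarcoma 180 ED150) from median-survival T/C, 45 days; B16 ID50 from day-16 tumor size.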

Sarcoma 180 = assay: animal or person; type: in vivo, dd-strain mice; settings: for Antitumor activity S180 (ED150): once daily 9 days, effective dose 150, survival; for Antitumor activity S180 (ED150) / Antitumor therapeutic index S180: copper-chelated form unless otherwise stated; for Antitumor therapeutic index S180: single dose LD50/ED150
Summary of the method: as §3

Melanotic melanoma B16 = assay: Antitumor activity in mice, melanotic melanoma B16; type: in vivo, BDF1 mice; settings: copper-chelated form unless otherwise stated; for Antitumor activity B16 (ID50): ip, once daily 9 days, 50% inhibition of tumor growth, day 16, 23040 min; for Antitumor therapeutic index B16: single dose LD50/ID50
Summary of the method: as §3

Lewis lung carcinoma = assay: Antitumor activity in mice, Lewis lung carcinoma; type: in vivo, BDF1 mice; settings: for Antitumor activity Lewis lung (ED125): once daily 11 days, dose giving T/C survival of 125%; for Antitumor activity Lewis lung (ED125) / Antitumor therapeutic index Lewis Lung: copper-chelated form unless otherwise stated; for Antitumor therapeutic index Lewis Lung: single dose LD50/ED125
Source text: The antitumor activity of the tallysomycin derivatives was examined in four experimental tumor systems in mice. Lymphocytic leukemia P388 and Lewis lung carcinoma were implanted intraperitoneally into BDF1 mice of either sex at an inoculum size of 3×10^5 and 5×10^5 cells per mouse, respectively. Sarcoma 180 ascites tumor was inoculated intraperitoneally into male dd-strain mice with […] per mouse. Melanotic melanoma B16 was implanted subcutaneously into BDF1 mice with 5×10^5 cells per mouse. Twenty-four hours after the implantation of tumor cells, graded doses of test compounds were administered to mice intraperitoneally in an injection volume of 0.2 ml. per 10 grams of body weight. Test compounds were given once daily for 9 days (qd 1→9 schedule) except for the mice inoculated with Lewis lung carcinoma which were treated for 11 days (qd 1→11). Death or survival of the treated and non-treated (control) animals was recorded daily during the observation period of 45 days after the implantation of tumor cells, and the median survival time was calculated for each of the test (T) and control (C) groups. […] The actual dose giving a T/C of 125% was estimated by linear regression analysis and defined as the effective dose 125 or ED125. The effective dose 150 (ED150) was employed for the evaluation of antitumor effect against Sarcoma 180. In the B16 melanoma experiment the tumor size was measured on day 16 after tumor inoculation, and the dose giving 50% inhibition of tumor growth (ID50) was calculated from regression lines.
The antitumor therapeutic index was calculated for each derivative from the ratio of toxicity and antitumor activity.

[8] = Subacute toxicity, multiple dose LD50; type: in vivo, dd mice; settings: ip, once daily 9 days, 30 days observation; copper-chelated form unless otherwise stated
Protocol: (§4) Graded doses of test compounds were administered intraperitoneally to groups of dd mice. The injection was given one time only or once daily for 9 consecutive days. Death or survival of the animals was recorded for 30 days after the last dose of test compound to calculate the single or multiple median lethal dose (LD50).

[9] = Acute toxicity, single dose LD50; type: in vivo, dd mice; settings: ip, 30 days observation, copper-chelated form unless otherwise stated
Protocol: as §4

SMILES	minimum inhibitory concentration (MIC) [1]	minimum inhibitory concentration (MIC) [2]	minimum inhibitory concentration (MIC) [3]	minimum inhibitory concentration (MIC) (Escherichia coli NIHJ)	minimum inhibitory concentration (MIC) (Mycobacterium 607)	minimum inhibitory concentration (MIC) (Proteus mirabilis A9554)	minimum inhibitory concentration (MIC) (Sarcina lutea PCI1001)	minimum inhibitory concentration (MIC) [4]	Antibacterial potency [5]	ILB activity (minimum inducible concentration) [6] [µg/mL]	Antitumor activity P388 (ED125) [7] [mg/kg/day]	Antitumor activity S180 (ED150) (Sarcoma 180; ip) [mg/kg/day]	Antitumor activity B16 (ID50) (Melanotic melanoma B16) [mg/kg/day]	Antitumor activity Lewis lung (ED125) (Lewis lung carcinoma; ip) [mg/kg/day]	LD50 multiple dose (qd 1 → 9) [8] [mg/kg/day]	LD50 single dose [9] [mg/kg/day]	Antitumor therapeutic index P388 [7]	Antitumor therapeutic index S180 (Sarcoma 180)	Antitumor therapeutic index B16 (Melanotic melanoma B16)	Antitumor therapeutic index Lewis Lung (Lewis lung carcinoma)	other results
Cc1c(N)nc(C(CC(N)=O)NCC(N)C(N)=O)nc1C(=O)NC(C(=O)NC(C)C(O)CC(=O)NC(C(=O)NC(OC1OC(C)C(N)C(O)C1O)C(O)c1nc(-c2nc(C(=O)NCCCNC(C)c3ccccc3)cs2)cs1)C(C)O)C(OC1OC(CO)C(O)C(O)C1OC1OC(CO)C(O)C(OC(N)=O)C1O)c1c[nH]cn1 (centres unmarked) [Tallysomycin S14b]	25	0.4	> 100	0.4	0.2	25	3.1	3.1	1,090 μ/mg	0.04	3.0	0.08	0.43	0.29	16	–	–	–	–	–	–
Cc1c(N)nc(C(CC(N)=O)NCC(N)C(N)=O)nc1C(=O)NC(C(=O)NC(C)C(O)CC(=O)NC(C(=O)NC(OC1OC(C)C(N)C(O)C1O)C(O)c1nc(-c2nc(C(=O)NCCCCN)cs2)cs1)C(C)O)C(OC1OC(CO)C(O)C(O)C1OC1OC(CO)C(O)C(OC(N)=O)C1O)c1c[nH]cn1 (centres unmarked) [Tallysomycin S10b (Cu-free)]	–	–	–	–	–	–	–	–	–	–	–	–	–	–	4.0	42	–	–	–	–	ED (T/C 125%) ([7]; Mus musculus, P388, ip, 216 h, read-out: Antitumor activity P388 (ED125)): 0.47 mg/kg/day; ED (T/C 150%) (Sarcoma 180; Mus musculus, ip, 216 h, read-out: Antitumor activity S180 (ED150)): 0.02 mg/kg/day; ED (T/C 125%) (Lewis lung carcinoma; Mus musculus, Lewis lung carcinoma, ip, 264 h, read-out: Antitumor activity Lewis lung (ED125)): 0.21 mg/kg/day
Cc1c(N)nc(C(CC(N)=O)NCC(N)C(N)=O)nc1C(=O)NC(C(=O)NC(C)C(O)CC(=O)NC(C(=O)NC(OC1OC(C)C(N)C(O)C1O)C(O)c1nc(-c2nc(C(=O)NCCCN(CCO)CCO)cs2)cs1)C(C)O)C(OC1OC(CO)C(O)C(O)C1OC1OC(CO)C(O)C(OC(N)=O)C1O)c1c[nH]cn1 (centres unmarked) [Tallysomycin S8b]	1.6	0.013	> 50	0.2	0.1	0.8	0.8	0.4	370 μ/mg	0.02	1.5	0.25	0.26	0.12	–	30	20	120	115	250	–
Cc1c(N)nc(C(CC(N)=O)NCC(N)C(N)=O)nc1C(=O)NC(C(=O)NC(C)C(O)CC(=O)NC(C(=O)NC(OC1OC(C)C(N)C(O)C1O)C(O)c1nc(-c2nc(C(=O)NCCN)cs2)cs1)C(C)O)C(OC1OC(CO)C(O)C(O)C1OC1OC(CO)C(O)C(OC(N)=O)C1O)c1c[nH]cn1 (centres unmarked) [Tallysomycin S3b]	0.8	0.013	12.5	0.1	0.05	0.2	1.6	0.8	725 μ/mg	0.31	0.32	0.06	0.20	0.26	–	19	59	317	95	73	–
CNCCCNC(=O)c1csc(-c2csc(C(O)C(NC(=O)C(NC(=O)CC(O)C(C)NC(=O)C(NC(=O)c3nc(C(CC(N)=O)NCC(N)C(N)=O)nc(N)c3C)C(OC3OC(CO)C(O)C(O)C3OC3OC(CO)C(O)C(OC(N)=O)C3O)c3c[nH]cn3)C(C)O)OC3OC(C)C(N)C(O)C3O)n2)n1 (centres unmarked) [Tallysomycin S11b]	6.3	0.1	12.5	0.2	0.1	1.6	0.8	3.1	450 μ/mg	0.63	0.28	0.20	0.70	0.32	–	21	75	105	30	66	–
